This note sets out measurements from US9453014B2, “Cyclic amide derivatives as inhibitors of 11-β-hydroxysteroid dehydrogenase and uses thereof” (CONNEXIOS LIFE SCIENCES PVT. LTD., priority 2011, dated 2016).

By IC50 is commonly meant the concentration at which inhibition is half-maximal.

T1 sequence (P28845 whole entry): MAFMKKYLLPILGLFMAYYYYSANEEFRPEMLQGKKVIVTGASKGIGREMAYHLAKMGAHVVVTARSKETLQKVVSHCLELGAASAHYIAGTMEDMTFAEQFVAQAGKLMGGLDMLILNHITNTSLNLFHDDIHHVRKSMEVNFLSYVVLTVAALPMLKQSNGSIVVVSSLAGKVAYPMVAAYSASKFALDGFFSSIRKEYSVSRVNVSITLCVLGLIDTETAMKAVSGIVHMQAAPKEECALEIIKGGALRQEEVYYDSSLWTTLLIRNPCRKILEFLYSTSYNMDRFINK

The test addresses T1, human full length HSD11 β 1 (Homo sapiens, UniProt P28845).
T1 construct: transient expression of human full length HSD11 β 1 expression vector; host or cells: CHO cells (transient transfection)
In words: In Vitro HSD11β1 Inhibition Assay. The conditions noted are these: CHO cells transiently expressing human HSD11β1; 200 nM cortisone+500 uM NADPH overnight; cortisone to cortisol by LC/MS-MS; read-out: 11βHSD1 (IC50). It is filed as cell-based. In outline: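 CHO cells transiently transfected with human full-length HSD11β1 were re-seeded after 24 h and, 24 h later, incubated overnight with 200 nM cortisone plus 500 uM NADPH and inhibitor. Cortisone-to-cortisol conversion was measured by LC/MS-MS. IC50 from an 8-point log concentration–inhibition curve.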
For the compound `CC(C)C(CC(=O)N1CCC(C(=O)O)C2CCCCC21)c1c[nH]c2ccccc12` (stereo not shown) [Example 105, 1-[3-(1H-indol-3-yl)-4-methylpentanoyl]decahydroquinoline-4-carboxylic acid], the IC50 was above 0.25 µM. Regarding `CC(CC(=O)N1CCCC2(CO)CCCCC12)c1c[nH]c2cccc(Cl)c12` (stereo not shown) [Example 130, 3-(4-chloro-1H-indol-3-yl)-1-[4a-(hydroxymethyl)octahydroquinolin-1(2H)-yl]butan-1-one], the concentration for half-maximal inhibition (IC50) is above 0.25 µM. Under `O=C(CSc1nc2ccccc2s1)N1CCCC2CCCCC21` (stereo not shown) [Compound 73, 2-(1,3-benzothiazol-2-ylsulfanyl)-1-(octahydroquinolin-1(2H)-yl)ethanone] stands above 0.25 µM. Under `CC(CC(=O)N1CCCC2(C)CCCCC12)c1c[nH]c2cccc(F)c12` (stereo not shown) [Example 114, 3-(4-fluoro-1H-indol-3-yl)-1-(4a-methyloctahydroquinolin-1(2H)-yl)butan-1-one] stands below 0.1 µM. `CC12CCCCC1N(C(=O)CCc1nc3ccccc3s1)CCC2` (stereo not shown) [Example 78, 3-(1,3-benzothiazol-2-yl)-1-(4a-methyloctahydroquinolin-1(2H)-yl)propan-1-one]: the IC50 is below 0.1 µM. Under `CC(CC(=O)N1CCCC2(O)CCCCC12)c1c[nH]c2ncccc12` (stereo not shown) [Example 148, 1-(4a-hydroxyoctahydroquinolin-1(2H)-yl)-3-(1H-pyrrolo[2,3-b]pyridin-3-yl)butan-1-one] stands above 0.25 µM.

For `CC(=O)NC(Cc1c[nH]c2ccccc12)C(=O)N1CCCC2CCCCC21` (stereo not shown) [Example 96, N-[3-(1H-indol-3-yl)-1-(octahydroquinolin-1(2H)-yl)-1-oxopropan-2-yl]acetamide], the IC50 was above 0.25 µM.

As to `CC(CC(=O)N1CCCC2C(C(=O)O)CCCC21)c1c[nH]c2cccc(C3CC3)c12` (single isomer, unassigned) [Compound 195, 1-[3-(4-cyclopropyl-1H-indol-3-yl)butanoyl]decahydroquinoline-5-carboxylic acid], the IC50 is below 0.1 µM. Under `Cc1ccc2[nH]cc(C(C)CC(=O)N3CCCC4C(C(=O)O)CCCC43)c2c1Cl` (stereo not shown) [Compound 203, 1-[3-(4-chloro-5-methyl-1H-indol-3-yl)butanoyl]decahydroquinoline-5-carboxylic acid] stands above 0.25 µM. The value for `O=C(CCc1c[nH]c2ccccc12)N1CCO[C@@H]2CCCCC21` (stereo partly drawn) [Compound 61, 3-(1H-indol-3-yl)-1-[(trans-4a,8a)-octahydro-4H-1,4-benzoxazin-4-yl]propan-1-one] was above 0.25 µM.

In the case of `COC(=O)C1CCN(C(=O)CC(C)c2c[nH]c3ccccc23)C2CCCCC12` (stereo not shown) [Example 102, methyl 1-[3-(1H-indol-3-yl)butanoyl]decahydroquinoline-4-carboxylate], the IC50 is above 0.25 µM. The value for `O=C(CCCc1c[nH]c2ccccc12)N1CCCC2CCCCC21` (stereo not shown) [Compound 11, 4-(1H-indol-3-yl)-1-(octahydroquinolin-1(2H)-yl)butan-1-one] was 0.1 to 0.15 µM.

With `CC(CC(=O)N1CCCC2C(C(=O)O)CCCC21)c1c[nH]c2cccc(-c3ccc(F)cc3)c12` (stereo not shown) [Compound 253, 1-{3-[4-(4-fluorophenyl)-1H-indol-3-yl]butanoyl}decahydroquinoline-5-carboxylic acid], the IC50 was below 0.1 µM.

For `CC(CC(=O)N1CCCC2C(C(=O)O)CCCC21)c1c[nH]c2cccc(C#N)c12` (stereo not shown) [Compound 197, 1-[3-(4-cyano-1H-indol-3-yl)butanoyl]decahydroquinoline-5-carboxylic acid], the IC50 is above 0.25 µM.

Turning to `CC(CC(=O)N1C(C)CCC2C(C(=O)O)CCCC21)c1c[nH]c2cccc(C3CC3)c12` (stereo not shown) [Compound 230, 1-[3-(4-cyclopropyl-1H-indol-3-yl)butanoyl]-2-methyldecahydroquinolin-5-carboxylic acid], the IC50 fell in the range of 0.15 to 0.2 µM. Under `CC(CC(=O)N1CCCC2C(C(=O)O)CCCC21)c1c[nH]c2cccc(-c3ccc(F)cc3)c12` (single isomer, unassigned) [Compound 256, 1-{3-[4-(4-fluorophenyl)-1H-indol-3-yl]butanoyl}decahydroquinoline-5-carboxylic acid] stands above 0.25 µM.

In the case of `CC(CC(=O)N1CCCC2CCCCC21)c1c[nH]c2ccccc12` (single isomer, unassigned) [Example 119, 3-(1H-indol-3-yl)-1-(octahydroquinolin-1(2H)-yl)butan-1-one], the concentration for half-maximal inhibition (IC50) is below 0.1 µM. As to `CC(CC(=O)N1C(C)CCC2C(C(=O)O)CCCC21)c1c[nH]c2cccc(Cl)c12` (stereo not shown) [Compound 234, 1-[3-(4-chloro-1H-indol-3-yl)butanoyl]-2-methyldecahydroquinoline-5-carboxylic acid], the IC50 was above 0.25 µM.

In the case of `CC(C)Oc1cccc2c1c(C(C)CC(=O)N1CCCC3C(C(=O)O)CCCC31)cn2C` (stereo not shown) [Compound 208, 1-{3-[1-methyl-4-(propan-2-yloxy)-1H-indol-3-yl]butanoyl}decahydroquinoline-5-carboxylic acid], the IC50 is 0.1 to 0.15 µM. Regarding `Cn1cc(C(C)(C)CC(=O)N2CCOC3CCCCC32)c2ccccc21` (stereo not shown) [Compound 71, 3-methyl-3-(1-methyl-1H-indol-3-yl)-1-(octahydro-4H-1,4-benzoxazin-4-yl)butan-1-one], the IC50 fell in the range of 0.15 to 0.2 µM. For `CC(C)C(CC(=O)N1CCC(C(=O)O)C2CCCCC21)c1c[nH]c2cc(F)ccc12` (single isomer, unassigned) [Example 177, 1-[3-(6-fluoro-1H-indol-3-yl)-4-methylpentanoyl]decahydroquinoline-4-carboxylic acid], the IC50 was in the range of 0.15 to 0.2 µM. The value for `Cc1cccc2nn(C(C)CC(=O)N3CCC(C(=O)O)C4CCCCC43)nc12` (stereo not shown) [Example 169, 1-[3-(4-methyl-2H-benzotriazol-2-yl)butanoyl]decahydroquinoline-4-carboxylic acid] was above 0.25 µM. The value for `Cc1[nH]c2ccccc2c1CCC(=O)N1CCCC2CCCCC21` (stereo not shown) [Compound 17, 3-(2-methyl-1H-indol-3-yl)-1-(octahydroquinolin-1(2H)-yl)propan-1-one] was below 0.1 µM. The value for `O=C(O)C1CCN(C(=O)CC(c2ccccc2)c2c[nH]c3cccc(F)c23)C2CCCCC12` (single isomer, unassigned) [Example 161, 1-[3-(4-fluoro-1H-indol-3-yl)-3-phenylpropanoyl]decahydroquinoline-4-carboxylic acid] was below 0.1 µM; that for `CC(CC(=O)N1CCCC2C(C(=O)O)CCCC21)c1c[nH]c2cccc(C3CC3)c12` (single isomer, unassigned) [Compound 198, 1-[3-(4-cyclopropyl-1H-indol-3-yl)butanoyl]decahydroquinoline-5-carboxylic acid] was 0.1 to 0.15 µM; that for `CC(CC(=O)N1CCCC2CCCCC21)c1c[nH]c2ncccc12` (stereo not shown) [Example 143, 1-(octahydroquinolin-1(2H)-yl)-3-(1H-pyrrolo[2,3-b]pyridin-3-yl)butan-1-one] was below 0.1 µM. As to `O=C(O)C1CCN(C(=O)CC(c2cccs2)c2c[nH]c3cccc(F)c23)C2CCCCC12` (stereo not shown) [Example 156, 1-[3-(4-fluoro-1H-indol-3-yl)-3-(thiophen-2-yl)propanoyl]decahydroquinoline-4-carboxylic acid], the IC50 is below 0.1 µM.

Consider `CC(CC(=O)N1CCC(C(=O)O)C2CCCCC21)c1c[nH]c2cccc(-c3ccco3)c12` (stereo not shown) [Compound 227, 1-{3-[4-(furan-2-yl)-1H-indol-3-yl]butanoyl}decahydroquinoline-4-carboxylic acid], for which the IC50 was above 0.25 µM. `CC(C)C(CC(=O)N1CCC(C(=O)O)C2CCCCC21)c1c[nH]c2cc(Cl)ccc12` (stereo not shown) [Example 185, 1-[3-(6-chloro-1H-indol-3-yl)-4-methylpentanoyl]decahydroquinoline-4-carboxylic acid]: the IC50 was in the range of 0.15 to 0.2 µM. The value for `CC(CC(=O)N1CCOC2CCCCC21)c1c[nH]c2cccc(F)c12` (single isomer, unassigned) [Example 138, 3-(4-fluoro-1H-indol-3-yl)-1-(octahydro-4H-1,4-benzoxazin-4-yl)butan-1-one] was 0.15 to 0.2 µM; that for `CC1(O)CCN(C(=O)CCc2c[nH]c3ccccc23)C2CCCCC21` (stereo not shown) [Compound 34, 1-(4-hydroxy-4-methyloctahydroquinolin-1(2H)-yl)-3-(1H-indol-3-yl)propan-1-one] was above 0.25 µM. Turning to `CCn1cc(C(C)CC(=O)N2CCCC3C(C(=O)O)CCCC32)c2c(C3CC3)cccc21` (stereo not shown) [Compound 210, 1-[3-(4-cyclopropyl-1-ethyl-1H-indol-3-yl)butanoyl]decahydroquinoline-5-carboxylic acid], the IC50 lay in the range of 0.1 to 0.15 µM. Under `CC(CC(=O)N1CCCC2C(C(=O)O)CCCC21)c1c[nH]c2cccc(-c3ccc(F)cc3)c12` (stereo not shown) [Compound 243, 1-{3-[4-(4-fluorophenyl)-1H-indol-3-yl]butanoyl}decahydroquinoline-5-carboxylic acid] stands below 0.1 µM; under `O=C(O)C1CCCC2C1CCCN2C(=O)CC(O)(c1c[nH]c2ccccc12)C(F)(F)F` (stereo not shown) [Compound 265, 1-[4,4,4-trifluoro-3-hydroxy-3-(1H-Indol-3-yl)butanoyl]-decahydroquinoline-5-carboxylic acid], above 0.25 µM; under `CCC(CC(=O)N1CCC(C(=O)O)C2CCCCC21)c1c[nH]c2cccc(Cl)c12` (stereo not shown) [Example 187, 1-[3-(4-chloro-1H-indol-3-yl)pentanoyl]decahydroquinoline-4-carboxylic acid], above 0.25 µM. With `CC(CC(=O)N1C(C)CCC2C(C(=O)O)CCCC21)c1c[nH]c2cccc(-c3cccs3)c12` (stereo not shown) [Compound 233, 2-methyl-1-{3-[4-(thiophen-2-yl)-1H-indol-3-yl]butanoyl}decahydroquinoline-5-carboxylic acid], the IC50 was above 0.25 µM. For the compound `Cc1cccc2c1c(CCC(=O)N1CCOC3CCCCC31)cn2C` (stereo not shown) [Compound 60, 3-(1,4-dimethyl-1H-indol-3-yl)-1-(octahydro-4H-1,4-benzoxazin-4-yl)propan-1-one], the IC50 is below 0.1 µM.
